Values belong to the compound of their own block, whether it stands above or below them.
How the values were obtained:
[1] = tested on: oxaliplatin-treated Balb/C mice; conditions: oxaliplatin 6 mg/kg i.p. twice weekly for 4 weeks
[2] = Comparative pharmacokinetics versus reference compounds, rat
[3] = Comparative pharmacokinetics versus reference compounds, dog
[4] = Rat, 2 hours after intravenous administration
[5] = Rat, IV, dosing level 3 mg/kg (level not given for Reference 2)
[6] = Rat, PO, dosing level 3 mg/kg (level not given for Reference 2)
[7] = Dog, IV, dosing level 1 mg/kg (level not given for Reference 2)
[8] = Dog, PO, dosing level 2 mg/kg (level not given for Reference 2)

SMILES: O=C1[O][Pt]2([NH][C@@H]3CCCC[C@H]3[NH]2)[O]C1=O [Oxaliplatin, reference compound]
- decrease in caudal NCV vs. vehicle-treated mice [1]: 8±1.1%
- reduction in IENFD in the footpads vs. vehicle-treated mice [1]: −31.7±3.5%
- decrease in digital potential amplitude ([1]; not statistically significant): 13.5+/−6.4%

- 2 hr brain concentration [2, 4]: 79.6 ng · g
- 2 hr plasma concentration [2, 4]: 790.3 ng/mL
- AUC (0-t) [2, 5]: 8412.7 ng·h/mL
- CLz/F [2, 5]: 0.3 L/h/kg
- AUC (0-t) [2, 6]: 6139.8 ng·h/mL
- CLz/F [2, 6]: 0.4 L/h/kg
- F [2, 6]: 73.0%
- Kp at 2 h ([2]; rat, brain/plasma, iv): 0.1
- Cmax ([2]; rat, plasma, iv, 3 mg/kg): 1220 ng/mL
- half-life ([2]; rat, plasma, iv, 3 mg/kg): 348 min
- Cmax ([2]; rat, plasma, po, 3 mg/kg): 481 ng/mL
- Vd/F ([2]; rat, plasma, po, 3 mg/kg): 3.3 L/kg
- half-life ([2]; rat, plasma, po, 3 mg/kg): 366 min
- tmax ([2]; rat, plasma, po, 3 mg/kg): 6 h
- AUC (0-t) [3, 7]: 14810.5 ng·h/mL
- CLz/F [3, 7]: 0.04 L/h/kg
- AUC (0-t) [3, 8]: 28288.2 ng·h/mL
- CLz/F [3, 8]: 0.06 L/h/kg
- F [3, 8]: 95.5%
- Cmax ([3]; dog, in vivo, iv, 1 mg/kg): 1520 ng/mL
- half-life ([3]; dog, in vivo, iv, 1 mg/kg): 1330 min
- Cmax ([3]; dog, in vivo, po, 2 mg/kg): 2040 ng/mL
- Vd/F ([3]; dog, in vivo, po, 2 mg/kg): 0.9 L/kg
- half-life ([3]; dog, in vivo, po, 2 mg/kg): 708 min
- tmax ([3]; dog, in vivo, po, 2 mg/kg): 40.2 min
SMILES: COc1ccc([C@H](C)NC(=O)N(O)C2CCN(C)CC2)c2ccccc12 [Reference 2]

- solubility (Water solubility testing): < 2000 µg/mL
SMILES: COc1ccc(C(C)NC(=O)N(C)C2CCN(C)CC2(C)C)c(Cl)c1Cl (centres unmarked) [free base, 3-(1-(2,3-dichloro-4-methoxyphenyl)ethyl)-1-methyl-1-(1,3,3-trimethylpiperidin-4-yl)urea]

From patent US12005056B2, “Centrally-active ghrelin agonist and medical uses thereof” (Helsinn Healthcare SA, priority 2018, dated 2024)
